The structures appear in SMILES notation. *1 amine or outer side, *2 acyl side, *3 side chain or, on linkers, in order; H or OH if unused. Where a SMILES comes first, the peptide text is derived from it. [ ]: non-standard residue; d: D form. d(isoGln) = NC(=O)[C@@H](CCC(=O)[*:2])N[*:1]

Assay [1] addresses T1, PcsBCHAP (CHAP domain of PcsB) (Streptococcus pneumoniae, UniProt A0A0H2ZQ76).
T1 sequence (A0A0H2ZQ76 274-392): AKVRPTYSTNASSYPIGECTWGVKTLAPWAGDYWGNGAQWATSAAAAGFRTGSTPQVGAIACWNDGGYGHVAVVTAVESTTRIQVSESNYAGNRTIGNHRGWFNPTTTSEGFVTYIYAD
Briefly: biochemical. The settings on record: read-out: kd (1/s).

Assay [2] concerns the target T1, PcsBCHAP (CHAP domain of PcsB). Nature of the assay: biochemical. The settings on record: read-out: ka (1/Ms).
Assay [3] has the same target. Nature of the assay: SPR. Format: binding.

`C[C@H](N)C(=O)N[C@H](CCC(=O)N[C@@H](CCCCN)C(=O)N[C@H](C)C(=O)N[C@H](C)C(=O)O)C(N)=O` [AiQKADAD] (H-A[d(isoGln)]K[dA][dA]-OH): the koff in assay [1] was 0.00502 s⁻¹. The kon in assay [2] came to 99600 M⁻¹ s⁻¹.
With `NCCCC[C@H](NC(=O)CC[C@@H](N)C(=O)O)C(=O)O` [iE-Lys], the Kd in assay [3] was 94.1 nM. Also, the koff in assay [1] stood at 0.00956 s⁻¹. Also, the kon in assay [2] is 102000 M⁻¹ s⁻¹.
With `N[C@H](CCC(=O)N[C@H](CCC[C@H](N)C(=O)O)C(=O)O)C(=O)O` [iE-DAP], the koff in assay [1] is 0.017 s⁻¹. For the same molecule, the kon in assay [2] is 158000 M⁻¹ s⁻¹.
Taken in the same sequence, the figures for `C[C@H](N)C(=O)N[C@H](CCC(=O)N[C@@H](CCCCN)C(=O)N[C@H](C)C(=O)N[C@H](C)C(=O)O)C(=O)O` [AEKADAD] were 0.036 s⁻¹ and 33300 M⁻¹ s⁻¹.
Taken in the same sequence, the figures for `CC(=O)N[C@H]1C(O)O[C@H](CO)[C@@H](O)[C@@H]1O[C@H](C)C(=O)N[C@@H](C)C(=O)N[C@H](CCC(=O)N[C@@H](CCC[C@@H](N)C(=O)O)C(=O)O)C(=O)O` (stereo partly shown) [M-TriDAP] were 0.00394 s⁻¹ and 6280 M⁻¹ s⁻¹.
The like results for `CC(=O)N[C@H]1C(O)O[C@H](CO)[C@@H](O)[C@@H]1O[C@H](C)C(=O)N[C@@H](C)C(=O)N[C@H](CCC(=O)N[C@@H](CCCCN)C(=O)O)C(N)=O` (stereo partly shown) [M-TriLYS] were, in that order, 0.0117 s⁻¹ and 98200 M⁻¹ s⁻¹.

By Kd is commonly meant the constant that tells how readily two partners part at equilibrium. A higher Kd goes with a looser complex.

These data come from publication doi:10.1101/2025.05.23.655736v2 (biorxiv, 2025).
